In US7064120B2, “Tricyclic pyridyl carboxamides and derivatives thereof tocolytic oxytocin receptor antagonists” (Wyeth, priority 2001, dated 2006) one finds inhibition data, which are given here for 20 molecules.

Structures are written as SMILES.

Usually inhibition stands for the drop in the measured response relative to a control, in per cent.

For the experiment, the target named is T1, human vasopressin V1a receptor subtype (Homo sapiens, UniProt P37288).
T1 construct: host or cells: CHO cells, stably transfected (pZeoSV vector for the Thibonnier line)
T1 sequence (P37288 whole entry): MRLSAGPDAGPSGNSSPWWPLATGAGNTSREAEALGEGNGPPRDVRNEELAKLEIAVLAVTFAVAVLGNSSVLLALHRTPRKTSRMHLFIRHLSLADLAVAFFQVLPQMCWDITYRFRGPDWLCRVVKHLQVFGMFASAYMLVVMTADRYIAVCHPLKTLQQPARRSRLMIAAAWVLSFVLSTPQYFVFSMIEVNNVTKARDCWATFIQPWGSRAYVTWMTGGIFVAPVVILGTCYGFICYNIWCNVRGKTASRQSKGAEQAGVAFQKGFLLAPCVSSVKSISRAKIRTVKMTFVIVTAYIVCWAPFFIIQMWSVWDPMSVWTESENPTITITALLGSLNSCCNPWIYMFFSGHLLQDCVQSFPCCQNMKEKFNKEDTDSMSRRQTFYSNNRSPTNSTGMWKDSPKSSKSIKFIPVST
As to the kind of experiment: Vasopressin binding in CHO cell membranes expressing human vasopressin V1a subtype receptors ([3H]Manning ligand radioligand binding). The note with it: 100 nM. In short, it runs like this:
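Membranes from CHO cells expressing human V1a, 25–50 μg protein/well, incubated 60 min at room temperature with [3H]Manning ligand (20 μL of 8 nM stock) in 50 mM Tris-HCl pH 7.4 with BSA, MgCl2 and protease inhibitors. Filtration then scintillation counting; reported as % inhibition or IC50 (nM).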
On to `Cc1ccccc1-c1ccc(C(=O)N2Cc3ccc(C(=O)N(C)CCc4ccncc4)n3Cc3ccccc32)cc1C` [Example 127, 10-[(2,2′-Dimethyl-[1,1′-biphenyl]-4-yl)carbonyl]-N-methyl-N-[2-(4-pyridinyl)ethyl]-10,11-dihydro-5H-pyrrolo[2,1-c][1,4]benzodiazepine-3-carboxamide], for which the inhibition at 0.1 µM was 66%. As for `COc1cccc(-c2ccc(C(=O)N3Cc4ccc(C(=O)N(C)CCc5ccncc5)n4Cc4ccccc43)cc2C)c1` [Example 128, 10-[(3′-Methoxy-2-methyl-[1,1′-biphenyl]-4-yl)carbonyl]-N-methyl-N-[2-(4-pyridinyl)ethyl]-10,11-dihydro-5H-pyrrolo[2,1-c][1,4]benzodiazepine-3-carboxamide], the figure is 31%; as for `COc1ccccc1-c1ccc(C(=O)N2Cc3ccc(C(=O)N(C)CCc4ccncc4)n3Cc3ccccc32)cc1` [Example 129, 10-[(2′-Methoxy-[1,1′-biphenyl]-4-yl)carbonyl]-N-methyl-N-[2-(4-pyridinyl)ethyl]-10,11-dihydro-5H-pyrrolo[2,1-c][1,4]benzodiazepine-3-carboxamide], 54%. For `Cc1ccccc1-c1ccc(C(=O)N2Cc3ccc(C(=O)N(C)CCc4ccncc4)n3Cc3ccccc32)cc1` [Example 130, N-Methyl-10-[(2′-methyl-[1,1′-biphenyl]-4-yl)carbonyl]-N-[2-(4-pyridinyl)ethyl]-10,11-dihydro-5H-pyrrolo[2,1-c][1,4]benzodiazepine-3-carboxamide], the inhibition at 0.1 µM was found to be 5%. With `COc1cc(C(=O)N2Cc3ccc(C(=O)N(C)CCc4ccncc4)n3Cc3ccccc32)ccc1-c1ccccc1C` [Example 131, 10-[(2-Methoxy-2′-methyl-[1,1′-biphenyl]-4-yl)carbonyl]-N-methyl-N-[2-(4-pyridinyl)ethyl]-10,11-dihydro-5H-pyrrolo[2,1-c][1,4]benzodiazepine-3-carboxamide], the inhibition at 0.1 µM came out at 83%. The figure for `COc1cc(-c2ccccc2C)c(Cl)cc1C(=O)N1Cc2ccc(C(=O)N(C)CCc3ccncc3)n2Cc2ccccc21` [Example 132, 10-[(6-Chloro-3-methoxy-2′-methyl-[1,1′-biphenyl]-4-yl)carbonyl]-N-methyl-N-[2-(4-pyridinyl)ethyl]-10,11-dihydro-5H-pyrrolo[2,1-c][1,4]benzodiazepine-3-carboxamide] is 26%; for `COc1cccc(-c2cc(OC)c(C(=O)N3Cc4ccc(C(=O)N(C)CCc5ccncc5)n4Cc4ccccc43)cc2Cl)c1` [Example 133, 10-[(6-Chloro-3,3′-dimethoxy-[1,1′-biphenyl]-4-yl)carbonyl]-N-methyl-N-[2-(4-pyridinyl)ethyl]-10,11-dihydro-5H-pyrrolo[2,1-c][1,4]benzodiazepine-3-carboxamide] it is 19%; for `COc1cc(C(=O)N2Cc3ccc(C(=O)N(C)CCc4ccncc4)n3Cc3ccccc32)ccc1-c1cccc2ccccc12` [Example 134, 10-[3-Methoxy-4-(naphthalen-1-yl)benzoyl]-N-methyl-N-[2-(4-pyridinyl)ethyl]-10,11-dihydro-5H-pyrrolo[2,1-c][1,4]benzodiazepine-3-carboxamide] it is 30%. `COc1cccc(-c2ccc(C(=O)N3Cc4ccc(C(=O)N(C)CCc5ccncc5)n4Cc4ccccc43)cc2OC)c1` [Example 135, 10-[(2,3′-Dimethoxy-[1,1′-biphenyl]-4-yl)carbonyl]-N-methyl-N-[2-(4-pyridinyl)ethyl]-10,11-dihydro-5H-pyrrolo[2,1-c][1,4]benzodiazepine-3-carboxamide]: the inhibition at 0.1 µM turned out to be 68%.

On to `CN(CCc1ccncc1)C(=O)c1ccc2n1Cc1ccccc1N(C(=O)c1ccc(-c3cccc4ccccc34)cc1Cl)C2` [Example 136, 10-[2-Chloro-4-(naphthalen-1-yl)benzoyl]-N-methyl-N-[2-(4-pyridinyl)ethyl]-10,11-dihydro-5H-pyrrolo[2,1-c][1,4]benzodiazepine-3-carboxamide], for which the inhibition at 0.1 µM came out at 7%. As for `Cc1cc(C(=O)N2Cc3ccc(C(=O)N(C)CCc4ccncc4)n3Cc3ccccc32)ccc1-c1ccccc1C(F)(F)F` [Example 137, N-Methyl-10-{[2-methyl-2′-trifluoromethyl-[1,1′-biphenyl]-4-yl]carbonyl}-N-[2-(4-pyridinyl)ethyl]-10,11-dihydro-5H-pyrrolo[2,1-c][1,4]benzodiazepine-3-carboxamide], the figure is -1%. Take `COc1ccccc1-c1ccc(C(=O)N2Cc3ccc(C(=O)N4CCCCC4c4cccnc4)n3Cc3ccccc32)cc1C` (centres unmarked) [Example 138, {10-[(2′-Methoxy-2-methyl-[1,1′-biphenyl]-4-yl)carbonyl]-10,11-dihydro-5H-pyrrolo[2,1-c][1,4]benzodiazepin-3-yl}[2-(3-pyridinyl)-1-piperidinyl]methanone]: the inhibition at 0.1 µM was 8%. As for `COc1ccccc1-c1ccc(C(=O)N2Cc3ccc(C(=O)N4CCCCC4c4cccnc4)n3Cc3ccccc32)cc1` (centres unmarked) [Example 139, {10-[(2′-Methoxy-[1,1′-biphenyl]-4-yl)carbonyl]-10,11-dihydro-5H-pyrrolo[2,1-c][1,4]benzodiazepin-3-yl}[2-(3-pyridinyl)-1-piperidinyl]methanone], the figure is 21%; as for `COc1cc(-c2ccccc2C)c(Cl)cc1C(=O)N1Cc2ccc(C(=O)N3CCCCC3c3cccnc3)n2Cc2ccccc21` (centres unmarked) [Example 140, {10-[(6-Chloro-3-methoxy-2′-methyl-[1,1′-biphenyl]-4-yl)carbonyl]-10,11-dihydro-5H-pyrrolo[2,1-c][1,4]benzodiazepin-3-yl}[2-(3-pyridinyl)-1-piperidinyl]methanone], -3%. As for `COc1ccccc1-c1ccc(C(=O)N2Cc3ccc(C(=O)N4CCCCC4c4cccnc4)n3Cc3ccccc32)cc1OC` (centres unmarked) [Example 141, {10-[(2,2′-Dimethoxy-[1,1′-biphenyl]-4-yl)carbonyl]-10,11-dihydro-5H-pyrrolo[2,1-c][1,4]benzodiazepin-3-yl}[2-(3-pyridinyl)-1-piperidinyl]methanone], the figure is 9%; as for `Cc1cc(C(=O)N2Cc3ccc(C(=O)N4CCCCC4c4cccnc4)n3Cc3ccccc32)ccc1-c1ccccc1C(F)(F)F` (centres unmarked) [Example 142, (10-{[2-Methyl-2′-trifluoromethyl-[1,1′-biphenyl]-4-yl]carbonyl}-10,11-dihydro-5H-pyrrolo[2,1-c][1,4]benzodiazepin-3-yl)[2-(3-pyridinyl)-1-piperidinyl]methanone], -5%. The figure for `COc1cc(C(=O)N2Cc3ccc(C(=O)N(C)CCc4ccccn4)n3Cc3ccccc32)ccc1-n1c(C)ccc1C` [Example 144, 10-[4-(2,5-Dimethyl-1H-pyrrol-1-yl)-3-methoxybenzoyl]-N-methyl-N-[2-(pyridin-2-yl)ethyl]-10,11-dihydro-5H-pyrrolo[2,1-c][1,4]benzodiazepine-3-carboxamide] is 11%; for `COc1cc(C(=O)N2Cc3ccc(C(=O)N4CCN(c5ccccn5)CC4)n3Cc3ccccc32)ccc1-n1c(C)ccc1C` [Example 145, {10-[4-(2,5-Dimethyl-1H-pyrrol-1-yl)-3-methoxybenzoyl]-10,11-dihydro-5H-pyrrolo[2,1-c][1,4]benzodiazepin-3-yl}[4-(pyridin-2-yl)-1-piperazinyl]methanone] it is -1%; for `COc1cc(C(=O)N2Cc3ccc(C(=O)N4CCN(c5ccncc5)CC4)n3Cc3ccccc32)ccc1-n1c(C)ccc1C` [Example 146, {10-[4-(2,5-Dimethyl-1H-pyrrol-1-yl)-3-methoxybenzoyl]-10,11-dihydro-5H-pyrrolo[2,1-c][1,4]benzodiazepin-3-yl}[4-(pyridin-4-yl)-1-piperazinyl]methanone] it is 11%. As for `COc1cc(C(=O)N2Cc3ccc(C(=O)N(C)CCc4ccncc4)n3Cc3ccccc32)ccc1-n1c(C)ccc1C` [Example 147, 10-[4-(2,5-Dimethyl-1H-pyrrol-1-yl)-3-methoxybenzoyl]-N-methyl-N-[2-(pyridin-4-yl)ethyl]-10,11-dihydro-5H-pyrrolo[2,1-c][1,4]benzodiazepine-3-carboxamide], the inhibition at 0.1 µM was determined as 15%.
